ChEMBL document CHEMBL5154835, “Design, synthesis and biological evaluation of sulfonamides inhibitors of XPO1 displaying activity against multiple myeloma cells” (Eur J Med Chem, 2022)
One block for each molecule: values may come before it. Calls of active or inactive are those of the source. The calls are words filed in the database; no cut-off is given here.

Key:
[1] = system: MM1.S; test: Antiproliferative activity against human MM1.S cells assessed as inhibition of cell growth incubated for 4 hrs by CCK-8 assay; type: functional, cell-based
[2] = system: MM1.S; test: Induction of apoptosis in human MM1.S cells assessed as assessed as necrotic cells at 10000 nM measured after 48 hrs by annexin V-FITC/PI staining based flow cytometry analysis (Rvb=7.60%); type: functional
[3] = Antiproliferative activity against human Mutu-1 cells assessed as inhibition of cell growth incubated for 4 hrs by CCK-8 assay; type: functional, cell-based; details: Mutu-1, 4 h
[4] = Antiproliferative activity against human VAL cells assessed as inhibition of cell growth incubated for 4 hrs by CCK-8 assay; type: functional, cell-based
[5] = system: MM1.S; test: Induction of apoptosis in human MM1.S cells assessed as assessed as viable cells at 100 nM measured after 48 hrs by annexin V-FITC/PI staining based flow cytometry analysis (Rvb=85.74%); type: functional; details: read-out: Activity
[6] = system: MM1.S; test: Induction of apoptosis in human MM1.S cells assessed as increase in apoptosis rate at 10 uM measured after 48 hrs by annexin V-FITC/PI staining based flow cytometry analysis (Rvb=6.7%); type: functional
[7] = system: H9; test: Antiproliferative activity against human H9 cells assessed as inhibition of cell growth incubated for 4 hrs by CCK-8 assay; type: functional, cell-based; details: H9, 4 h
[8] = system: MM1.S; test: Induction of cell cycle arrest in human MM1.S cells assessed as accumulation at G1 phase at 5000 nM incubated for 48 hrs by propidium iodide staining based flow cytometric analysis (reference value: 59.8%); type: functional
[9] = AUC (0 to infinity) in Sprague-Dawley rat at 10 mg/kg, IG measured upto 8 hrs by LC-MS/MS analysis; type: ADME, organism-based; design: dose 10 mg/kg, time < 8 hrs, route ig; details: in vivo, po
[10] = Cmax in Sprague-Dawley rat at 10 mg/kg, IG measured upto 8 hrs by LC-MS/MS analysis; type: ADME, organism-based; design: dose 10 mg/kg, time < 8 hrs, route ig; details: in vivo, po
[11] = system: MM1.S; test: Induction of apoptosis in human MM1.S cells assessed as assessed as late apoptotic cells at 1000 nM measured after 48 hrs by annexin V-FITC/PI staining based flow cytometry analysis (Rvb=2.06%); type: functional
[12] = Antiproliferative activity against human Rael cells assessed as inhibition of cell growth incubated for 4 hrs by CCK-8 assay; type: functional, cell-based
[13] = system: MM1.S; test: Induction of apoptosis in human MM1.S cells assessed as assessed as necrotic cells at 100 nM measured after 48 hrs by annexin V-FITC/PI staining based flow cytometry analysis (Rvb=7.60%); type: functional
[14] = system: MM1.S; test: Induction of cell cycle arrest in human MM1.S cells assessed as accumulation at G1 phase at 1000 nM incubated for 48 hrs by propidium iodide staining based flow cytometric analysis (reference value: 59.8%); type: functional
[15] = Metabolic stability in rat liver microsomes assessed as compound remaining preincubated for 5 mins measured upto 60 mins in presence of NADPH by LC/MS analysis; type: ADME, Microsome; details: time < 65 min, read-out: Stability
[16] = system: MM1.S; test: Induction of cell cycle arrest in human MM1.S cells assessed as p53-dependent accumulation of cells in G2 phase at 5000 nM incubated for 48 hrs by propidium iodide staining based flow cytometric analysis (reference value: 18.4%); type: functional
[17] = system: MM1.S; test: Induction of apoptosis in human MM1.S cells assessed as assessed as late apoptotic cells at 100 nM measured after 48 hrs by annexin V-FITC/PI staining based flow cytometry analysis (Rvb=2.06%); type: functional
[18] = AUC (0 to t) in Sprague-Dawley rat at 1 mg/kg, iv measured upto 8 hrs by LC-MS/MS analysis; type: ADME, organism-based; design: time < 8 hrs, dose 1 mg/kg, route iv; details: in vivo
[19] = Clearance in Sprague-Dawley rat at 1 mg/kg, iv measured upto 8 hrs by LC-MS/MS analysis; type: ADME, organism-based; details: in vivo
[20] = system: MM1.S; test: Induction of apoptosis in human MM1.S cells assessed as assessed as early apoptotic cells at 1000 nM measured after 48 hrs by annexin V-FITC/PI staining based flow cytometry analysis (Rvb=4.60%); type: functional
[21] = system: YT; test: Antiproliferative activity against human YT cells assessed as inhibition of cell growth incubated for 4 hrs by CCK-8 assay; type: functional, cell-based
[22] = system: MM1.S; test: Induction of cell cycle arrest in human MM1.S cells assessed as accumulation at S phase at 10000 nM incubated for 48 hrs by propidium iodide staining based flow cytometric analysis (reference value: 21.8%); type: functional
[23] = system: NAMALVA; test: Antiproliferative activity against human NAMALVA cells assessed as inhibition of cell growth incubated for 4 hrs by CCK-8 assay; type: functional, cell-based
[24] = system: MM1.S; test: Induction of apoptosis in human MM1.S cells assessed as assessed as early apoptotic cells at 10000 nM measured after 48 hrs by annexin V-FITC/PI staining based flow cytometry analysis (Rvb=4.60%); type: functional
[25] = Cmax in Sprague-Dawley rat at 1 mg/kg, iv measured upto 8 hrs by LC-MS/MS analysis; type: ADME, organism-based; design: dose 1 mg/kg, time < 8 hrs, route iv; details: in vivo
[26] = system: MM1.S; test: Induction of cell cycle arrest in human MM1.S cells assessed as p53-dependent accumulation of cells in G2 phaseat 10000 nM incubated for 48 hrs by propidium iodide staining based flow cytometric analysis (reference value: 18.4%); type: functional
[27] = system: MM1.S; test: Induction of apoptosis in human MM1.S cells assessed as assessed as necrotic cells at 1000 nM measured after 48 hrs by annexin V-FITC/PI staining based flow cytometry analysis (Rvb=7.60%); type: functional
[28] = system: MM1.S; test: Induction of cell cycle arrest in human MM1.S cells assessed as accumulation at G1 phase at 10000 nM incubated for 48 hrs by propidium iodide staining based flow cytometric analysis (reference value: 59.8%); type: functional
[29] = system: MM1.S; test: Induction of cell cycle arrest in human MM1.S cells assessed as accumulation at S phase at 100 nM incubated for 48 hrs by propidium iodide staining based flow cytometric analysis (reference value: 21.8%); type: functional
[30] = Antiproliferative activity against human MINO cells assessed as inhibition of cell growth incubated for 4 hrs by CCK-8 assay; type: functional, cell-based
[31] = AUC (0 to t) in Sprague-Dawley rat at 10 mg/kg, IG measured upto 8 hrs by LC-MS/MS analysis; type: ADME, organism-based; design: time < 8 hrs, dose 10 mg/kg, route ig; details: in vivo, po
[32] = AUC (0 to infinity) in Sprague-Dawley rat at 1 mg/kg, iv measured upto 8 hrs by LC-MS/MS analysis; type: ADME, organism-based; design: dose 1 mg/kg, time < 8 hrs, route iv; details: in vivo
[33] = Bioavailability in Sprague-Dawley rat at 10 mg/kg, IG measured upto 8 hrs by LC-MS/MS analysis; type: ADME, organism-based; details: in vivo, po
[34] = system: MM1.S; test: Induction of apoptosis in human MM1.S cells assessed as assessed as viable cells at 1000 nM measured after 48 hrs by annexin V-FITC/PI staining based flow cytometry analysis (Rvb=85.74%); type: functional; details: read-out: Activity
[35] = Clearance in Sprague-Dawley rat at 10 mg/kg, IG measured upto 8 hrs by LC-MS/MS analysis; type: ADME, organism-based; details: in vivo, po
[36] = Half life in Sprague-Dawley rat at 1 mg/kg, iv measured upto 8 hrs by LC-MS/MS analysis; type: ADME, organism-based; details: in vivo
[37] = system: MM1.S; test: Induction of cell cycle arrest in human MM1.S cells assessed as p53-dependent accumulation of cells in G2 phase at 100 nM incubated for 48 hrs by propidium iodide staining based flow cytometric analysis (reference value: 18.4%); type: functional
[38] = system: MM1.S; test: Induction of cell cycle arrest in human MM1.S cells assessed as accumulation at S phase at 5000 nM incubated for 48 hrs by propidium iodide staining based flow cytometric analysis (reference value: 21.8%); type: functional
[39] = Metabolic stability in rat plasma assessed as compound remaining measured upto 120 mins by LC/MS analysis; type: ADME, cell-free; details: read-out: Stability
[40] = system: MM1.S; test: Induction of cell cycle arrest in human MM1.S cells assessed as accumulation at G1 phase at 100 nM incubated for 48 hrs by propidium iodide staining based flow cytometric analysis (reference value: 59.8%); type: functional
[41] = Tmax in Sprague-Dawley rat at 1 mg/kg, iv measured upto 8 hrs by LC-MS/MS analysis; type: ADME, organism-based; details: in vivo
[42] = system: MM1.S; test: Induction of apoptosis in human MM1.S cells assessed as assessed as late apoptotic cells at 10000 nM measured after 48 hrs by annexin V-FITC/PI staining based flow cytometry analysis (Rvb=2.06%); type: functional
[43] = system: MM1.S; test: Induction of apoptosis in human MM1.S cells assessed as assessed as viable cells at 10000 nM measured after 48 hrs by annexin V-FITC/PI staining based flow cytometry analysis (Rvb=85.74%); type: functional; details: read-out: Activity
[44] = system: MM1.S; test: Induction of cell cycle arrest in human MM1.S cells assessed as accumulation at S phase at 1000 nM incubated for 48 hrs by propidium iodide staining based flow cytometric analysis (reference value: 21.8%); type: functional
[45] = Half life in Sprague-Dawley rat at 10 mg/kg, IG measured upto 8 hrs by LC-MS/MS analysis; type: ADME, organism-based; details: in vivo, po
[46] = biological target: Exportin-1 (Homo sapiens) (UniProt O14980); test: Inhibition of XPO1 in human MM1.S cells at 0.1 to 10 uM incubated for 2 hrs by confocal microscopic analysis; type: cell-based; details: dose 0.1-10 µM
Exportin-1 (Homo sapiens), sequence (O14980 whole entry): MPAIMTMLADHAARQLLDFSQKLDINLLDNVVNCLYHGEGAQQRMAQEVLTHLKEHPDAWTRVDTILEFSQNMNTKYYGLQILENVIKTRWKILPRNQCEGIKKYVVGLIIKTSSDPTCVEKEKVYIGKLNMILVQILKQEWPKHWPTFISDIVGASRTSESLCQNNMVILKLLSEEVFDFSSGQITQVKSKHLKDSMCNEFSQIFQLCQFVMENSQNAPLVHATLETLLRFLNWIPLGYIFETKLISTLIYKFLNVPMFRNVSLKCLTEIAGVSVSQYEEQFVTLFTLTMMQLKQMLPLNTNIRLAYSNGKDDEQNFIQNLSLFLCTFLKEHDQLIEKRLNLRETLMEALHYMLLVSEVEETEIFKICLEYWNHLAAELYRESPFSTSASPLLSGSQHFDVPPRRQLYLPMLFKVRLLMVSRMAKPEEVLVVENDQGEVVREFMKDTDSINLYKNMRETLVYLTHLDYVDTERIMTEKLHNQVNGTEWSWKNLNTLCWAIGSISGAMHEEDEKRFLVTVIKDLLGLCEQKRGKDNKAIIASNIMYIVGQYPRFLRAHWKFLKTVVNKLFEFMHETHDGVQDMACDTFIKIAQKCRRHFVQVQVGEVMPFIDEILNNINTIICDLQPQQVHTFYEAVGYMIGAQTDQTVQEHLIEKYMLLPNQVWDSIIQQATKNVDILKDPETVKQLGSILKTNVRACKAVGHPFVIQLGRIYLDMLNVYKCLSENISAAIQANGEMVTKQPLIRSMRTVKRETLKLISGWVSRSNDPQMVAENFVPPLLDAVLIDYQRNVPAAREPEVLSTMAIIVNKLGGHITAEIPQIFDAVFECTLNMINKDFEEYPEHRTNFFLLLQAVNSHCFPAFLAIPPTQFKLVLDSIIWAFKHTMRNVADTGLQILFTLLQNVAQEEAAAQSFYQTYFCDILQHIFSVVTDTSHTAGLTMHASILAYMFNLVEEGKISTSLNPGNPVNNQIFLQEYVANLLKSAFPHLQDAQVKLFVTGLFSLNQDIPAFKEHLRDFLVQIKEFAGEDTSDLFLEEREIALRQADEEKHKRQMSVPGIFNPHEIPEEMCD

[47] = system: MM1.S; test: Induction of cell cycle arrest in human MM1.S cells assessed as p53-dependent accumulation of cells in G2 phase at 1000 nM incubated for 48 hrs by propidium iodide staining based flow cytometric analysis (reference value: 18.4%); type: functional
[48] = Tmax in Sprague-Dawley rat at 10 mg/kg, IG measured upto 8 hrs by LC-MS/MS analysis; type: ADME, organism-based; details: in vivo, po
[49] = system: MM1.S; test: Induction of apoptosis in human MM1.S cells assessed as assessed as early apoptotic cells at 100 nM measured after 48 hrs by annexin V-FITC/PI staining based flow cytometry analysis (Rvb=4.60%); type: functional
[50] = Antiproliferative activity against human JB-6 cells assessed as inhibition of cell growth incubated for 4 hrs by CCK-8 assay; type: functional, cell-based; details: JB6, 4 h

SMILES: NC(=O)/C(=C/n1cnc(-c2cc(C(F)(F)F)cc(C(F)(F)F)c2)n1)c1cc(F)c(F)c(F)c1
IC50 [1]: 2430 nM

SMILES: NC(=O)/C(=C/n1cnc(-c2cc(C(F)(F)F)cc(C(F)(F)F)c2)n1)c1cccnc1
IC50 [1]: 194 nM

SMILES: N#Cc1cncc(/C(=C\n2cnc(-c3cc(C(F)(F)F)cc(C(F)(F)F)c3)n2)C(N)=O)c1
IC50 [1]: 118 nM

The next lines start with results.

IC50 [1]: 1270 nM
SMILES: NC(=O)/C(=C/n1cnc(-c2cc(C(F)(F)F)cc(C(F)(F)F)c2)n1)c1ccc(NS(=O)(=O)C2CCCCC2)cc1

AUC(0-inf) [9]: 6390 ng·h/mL
Cmax [10]: 1390 ng/mL
remaining at 1 h [15]: 85%
AUC(0-t) at 8 h [18]: 1670 ng·h/mL
clearance [19]: 9.42 mL/min/kg
Cmax [25]: 1240 ng/mL
AUC(0-t) at 8 h [31]: 5770 ng·h/mL
AUC(0-inf) [32]: 1790 ng·h/mL
bioavailability [33]: 34.6%
CL/F [35]: 27.3 mL/min/kg
half-life [36]: 2.32 h
IC50 [1]: 24 nM
remaining at 2 h [39]: 80%
Tmax [41]: 4.8 min
half-life [45]: 2.12 h
inhibition [46]: Active
Tmax [48]: 2.17 h
SMILES: CS(=O)(=O)Nc1ccc(/C(=C\n2cnc(-c3cc(C(F)(F)F)cc(C(F)(F)F)c3)n2)C(N)=O)cc1
Activity [2]: 7.34%
IC50 [3]: 158 nM
IC50 [4]: 189 nM
viability at 0.1 µM [5]: 75.4%
Activity [6]: 64.7%
IC50 [7]: 101 nM
Activity [8]: 52.6%
Activity [11]: 20.49%
IC50 [12]: 202 nM
Activity [13]: 6.94%
Activity [14]: 48.3%
Activity [16]: 37.3%
Activity [17]: 6.35%
Activity [20]: 26.42%
IC50 [21]: 75.4 nM
Activity [22]: 11.5%
IC50 [23]: 77.7 nM
Activity [24]: 27.36%
Activity [26]: 36.4%
Activity [27]: 6.61%
Activity [28]: 52.1%
Activity [29]: 15.4%
IC50 [30]: 80.2 nM
viability at 1 µM [34]: 46.5%
Activity [37]: 21.3%
Activity [38]: 10.2%
Activity [40]: 63.4%
Activity [42]: 37.33%
viability at 10 µM [43]: 28%
Activity [44]: 18.3%
Activity [47]: 33.4%
Activity [49]: 11.27%
IC50 [50]: 154 nM

IC50 [1]: 337 nM
SMILES: NC(=O)/C(=C/n1cnc(-c2cc(C(F)(F)F)cc(C(F)(F)F)c2)n1)c1ccc(NS(=O)(=O)c2ccccc2)cc1
